{"source": "patent US6706663B2", "about": "“Herbicidal 3-heterocyclic substituted benzisothiazole and benzisoxazole compounds” (Wyeth, priority 2000, dated 2004)", "key": {"ORYSAT (Rice, Tebonnet)": {"test_system": "ORYSAT (Rice, Tebonnet)", "test": "Flooded paddy, post-transplant rice tolerance", "assay_type": "in vivo, Oryza sativa, (L.) Tebonnet", "conditions": "flooded paddy, post-transplant rice, rated 3-4 weeks after treatment, 0-9 rating scale", "method_in_brief": "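Scores (0-9) reflect visual injury relative to untreated plants in flooded silt loam. Each pot held two transplanted ten-day-old seedlings under 1.5 to 3 cm standing water in the greenhouse.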"}, "[1]": {"test_system": "MOOVA (Monochoria vaginalis)", "test": "Flooded paddy, preemergence weed control", "assay_type": "in vivo, Presl.", "conditions": "rated 3-4 weeks after treatment, 0-9 rating scale", "method_in_brief": "(§1)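 Seeds or propagating organs were sown in the top 0.5 cm of silt loam soil, flooded, and the water kept 1.5 to 3 cm above the soil surface throughout. Plants were grown in the greenhouse and rated visually on a 0-9 scale against a control.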"}, "[2]": {"test_system": "CYPSE (Cyperus serotinus)", "test": "Flooded paddy, preemergence weed control", "assay_type": "in vivo, Rottb.", "conditions": "rated 3-4 weeks after treatment, 0-9 rating scale", "method_in_brief": "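Seeds or propagules were planted 0.5 cm deep in silt loam and flooded to 1.5–3 cm. Compounds in 50/50 v/v aqueous/acetone were pipetted into the flood water at about 0.0080 to 0.1250 kg/ha. After 3–4 weeks in the greenhouse, effect was rated visually on a 0–9 scale versus untreated control.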"}, "[3]": {"test_system": "ECHORC (Echinochloa oryzoides)", "test": "Flooded paddy, preemergence weed control", "assay_type": "in vivo, Echinochloa oryzoides (Ard.) Fritsch.", "conditions": "rated 3-4 weeks after treatment, 0-9 rating scale", "method_in_brief": "as §1"}, "[4]": {"test_system": "ECHCG (Echinochloa crus-galli)", "test": "Postemergence herbicidal evaluation", "assay_type": "in vivo, (L.) Beau", "conditions": "postemergence", "method_in_brief": "(§2)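 Seedlings grown for about two weeks were sprayed postemergence and then kept under standard greenhouse care. Injury was rated visually 4–5 weeks after treatment on a 0–9 scale against untreated controls, and ratings from repeat tests were averaged.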"}, "[5]": {"test_system": "ABUTH (Abutilon theophrasti)", "test": "Preemergence herbicidal evaluation", "assay_type": "in vivo, Medic.", "conditions": "rated 4-5 weeks after treatment"}, "SETVI (Setaria viridis)": {"test_system": "SETVI (Setaria viridis)", "test": "Postemergence herbicidal evaluation", "assay_type": "in vivo, (L.) Beau", "conditions": "postemergence", "method_in_brief": "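First, seedlings are raised in flats for about two weeks. Next, compound dispersed in 50/50 acetone/water with 0.5% TWEEN 20 is sprayed at 40 psi to deliver about 0.0040–1.000 kg/ha. Plants are then maintained in the greenhouse and rated 0-9 after four to five weeks.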"}, "[6]": {"test_system": "GLXMAW (Soybean, Williams)", "test": "Preemergence herbicidal evaluation", "assay_type": "in vivo, Glycine max, (L.) Merr. cv Williams", "conditions": "rated 4-5 weeks after treatment"}, "CYPIR (Cyperus iria)": {"test_system": "CYPIR (Cyperus iria)", "test": "Flooded paddy, preemergence weed control", "assay_type": "in vivo", "conditions": "rated 3-4 weeks after treatment, 0-9 rating scale", "method_in_brief": "as §1"}, "[7]": {"test_system": "SAGPY (Sagittaria pygmaea)", "test": "Flooded paddy, preemergence weed control", "assay_type": "in vivo, L.", "conditions": "rated 3-4 weeks after treatment, 0-9 rating scale", "method_in_brief": "as §1"}, "[8]": {"test_system": "TRZAWR (Wheat, Winter, cv Riband)", "test": "Postemergence herbicidal evaluation", "assay_type": "in vivo, Triticum aestivum", "conditions": "postemergence, rate 0.0320 kg/ha", "method_in_brief": "as §2"}, "ZEAMX (Corn, Field)": {"test_system": "ZEAMX (Corn, Field)", "test": "Preemergence herbicidal evaluation", "assay_type": "in vivo, Zea mays, L.", "conditions": "rated 4-5 weeks after treatment"}, "[9]": {"test_system": "AMBEL (Ambrosia artemisifolia)", "test": "Preemergence herbicidal evaluation", "assay_type": "in vivo, L.", "conditions": "rated 4-5 weeks after treatment", "method_in_brief": "(§3)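 Seeds mixed with potting soil were planted atop about one inch of soil, then sprayed with test compound in aqueous acetone. Cups were kept in the greenhouse and rated visually 4–5 weeks after treatment on a 0–9 scale against untreated control.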"}, "[10]": {"test_system": "CASOB (Cassia obtusifolia)", "test": "Preemergence herbicidal evaluation", "assay_type": "in vivo, L.", "conditions": "rated 4-5 weeks after treatment", "method_in_brief": "as §3"}, "[11]": {"test_system": "CHEAL (Chenopodium album)", "test": "Preemergence herbicidal evaluation", "assay_type": "in vivo, L.", "conditions": "rated 4-5 weeks after treatment", "method_in_brief": "as §3"}, "[12]": {"test_system": "IPOHE (Ipomoea hederacea)", "test": "Preemergence herbicidal evaluation", "assay_type": "in vivo, (L.) Jacq.", "conditions": "rated 4-5 weeks after treatment"}}}
{"smiles": "Cn1c(C(F)(F)F)cc(=O)n(-c2cc3c(C4OCCO4)nsc3cc2F)c1=O", "note": "[Compound 61, 3-[3-(1,3-dioxolan-2-yl)-6-fluoro-1,2-benzisothiazol-5-yl]-1-methyl-6-(trifluoromethyl)uracil]", "values": [{"measurement": "herbicidal rating, ORYSAT (rice tolerance)", "setting": "ORYSAT (Rice, Tebonnet); rate 0.0080 kg/ha", "result": 8.0}, {"measurement": "herbicidal rating, ORYSAT (rice tolerance)", "setting": "ORYSAT (Rice, Tebonnet); rate 0.0320 kg/ha", "result": 9.0}, {"measurement": "herbicidal rating, ORYSAT (rice tolerance)", "setting": "ORYSAT (Rice, Tebonnet); rate 0.1250 kg/ha", "result": 9.0}, {"measurement": "herbicidal rating, MOOVA", "setting": "[1]; rate 0.0080 kg/ha", "result": 8.5}, {"measurement": "herbicidal rating, MOOVA", "setting": "[1]; rate 0.0320 kg/ha", "result": 9.0}, {"measurement": "herbicidal rating, MOOVA", "setting": "[1]; rate 0.1250 kg/ha", "result": 9.0}, {"measurement": "herbicidal rating, CYPSE", "setting": "[2]; rate 0.0320 kg/ha", "result": 9.0}, {"measurement": "herbicidal rating, CYPSE", "setting": "[2]; rate 0.1250 kg/ha", "result": 9.0}, {"measurement": "herbicidal rating, ECHORC", "setting": "[3]; rate 0.0080 kg/ha", "result": 8.7}, {"measurement": "herbicidal rating, ECHORC", "setting": "[3]; rate 0.0320 kg/ha", "result": 9.0}, {"measurement": "herbicidal rating, ECHORC", "setting": "[3]; rate 0.1250 kg/ha", "result": 9.0}, {"measurement": "ECHCG herbicidal rating", "setting": "[4]; rate 0.0320 kg/ha", "result": 5.0}, {"measurement": "ECHCG herbicidal rating", "setting": "[4]; rate 0.0620 kg/ha", "result": 3.0}, {"measurement": "Preemergence herbicidal rating ABUTH", "setting": "[5]; Rate 0.0002 kg/ha", "result": 0.0}, {"measurement": "Preemergence herbicidal rating ABUTH", "setting": "[5]; Rate 0.0160 kg/ha", "result": 9.0}, {"measurement": "Preemergence herbicidal rating ABUTH", "setting": "[5]; Rate 0.0320 kg/ha", "result": 9.0}, {"measurement": "SETVI herbicidal rating", "setting": "SETVI (Setaria viridis); rate 0.0320 kg/ha", "result": 7.5}, {"measurement": "SETVI herbicidal rating", "setting": "SETVI (Setaria viridis); rate 0.0620 kg/ha", "result": 8.0}, {"measurement": "Preemergence herbicidal rating GLXMAW", "setting": "[6]; Rate 0.0002 kg/ha", "result": 0.0}, {"measurement": "Preemergence herbicidal rating GLXMAW", "setting": "[6]; Rate 0.0160 kg/ha", "result": 9.0}, {"measurement": "Preemergence herbicidal rating GLXMAW", "setting": "[6]; Rate 0.0320 kg/ha", "result": 9.0}, {"measurement": "herbicidal rating, CYPIR", "setting": "CYPIR (Cyperus iria); rate 0.0080 kg/ha", "result": 8.7}, {"measurement": "herbicidal rating, CYPIR", "setting": "CYPIR (Cyperus iria); rate 0.0320 kg/ha", "result": 9.0}, {"measurement": "herbicidal rating, CYPIR", "setting": "CYPIR (Cyperus iria); rate 0.1250 kg/ha", "result": 9.0}, {"measurement": "herbicidal rating, SAGPY", "setting": "[7]; rate 0.0080 kg/ha", "result": 3.0}, {"measurement": "herbicidal rating, SAGPY", "setting": "[7]; rate 0.0320 kg/ha", "result": 8.3}, {"measurement": "herbicidal rating, SAGPY", "setting": "[7]; rate 0.1250 kg/ha", "result": 9.0}, {"measurement": "TRZAWR herbicidal rating", "setting": "[8]", "result": 5.5}, {"measurement": "Preemergence herbicidal rating ZEAMX", "setting": "ZEAMX (Corn, Field); Rate 0.0002 kg/ha", "result": 0.0}, {"measurement": "Preemergence herbicidal rating ZEAMX", "setting": "ZEAMX (Corn, Field); Rate 0.0160 kg/ha", "result": 8.3}, {"measurement": "Preemergence herbicidal rating ZEAMX", "setting": "ZEAMX (Corn, Field); Rate 0.0320 kg/ha", "result": 9.0}, {"measurement": "Preemergence herbicidal rating AMBEL", "setting": "[9]; Rate 0.0002 kg/ha", "result": 0.0}, {"measurement": "Preemergence herbicidal rating AMBEL", "setting": "[9]; Rate 0.0160 kg/ha", "result": 9.0}, {"measurement": "Preemergence herbicidal rating AMBEL", "setting": "[9]; Rate 0.0320 kg/ha", "result": 9.0}, {"measurement": "Preemergence herbicidal rating CASOB", "setting": "[10]; Rate 0.0002 kg/ha", "result": 0.0}, {"measurement": "Preemergence herbicidal rating CASOB", "setting": "[10]; Rate 0.0160 kg/ha", "result": 7.3}, {"measurement": "Preemergence herbicidal rating CASOB", "setting": "[10]; Rate 0.0320 kg/ha", "result": 7.0}, {"measurement": "Preemergence herbicidal rating CHEAL", "setting": "[11]; Rate 0.0002 kg/ha", "result": 2.0}, {"measurement": "Preemergence herbicidal rating CHEAL", "setting": "[11]; Rate 0.0160 kg/ha", "result": 9.0}, {"measurement": "Preemergence herbicidal rating CHEAL", "setting": "[11]; Rate 0.0320 kg/ha", "result": 9.0}, {"measurement": "Preemergence herbicidal rating IPOHE", "setting": "[12]; Rate 0.0002 kg/ha", "result": 0.0}, {"measurement": "Preemergence herbicidal rating IPOHE", "setting": "[12]; Rate 0.0160 kg/ha", "result": 9.0}, {"measurement": "Preemergence herbicidal rating IPOHE", "setting": "[12]; Rate 0.0320 kg/ha", "result": 9.0}]}
